# The kinase profiling compilation of Christmann-Franck et al. (2016)
# Experiments:
# Assay in all cases: radiometric filter-binding kinase assay, Kinase HotSpot
# Conditions in all cases: compound 0.5 µM; ATP 10 µM
# PRKCH (human) = PRKCH (human) (UniProt P24723)
# MAP4K4 (human) = MAP4K4 (human) (UniProt O95819)
# SYK (human) = SYK (human) (UniProt P43405)
# NEK9 (human) = NEK9 (human) (UniProt Q8TD19)
# IKBKE (human) = IKBKE (human) (UniProt Q14164)
# RPS6KA6 KD1 KD2 (human) = RPS6KA6 KD1 KD2 (human) (UniProt Q9UK32)
# TLK2 (human) = TLK2 (human) (UniProt Q86UE8)
# DAPK3 (human) = DAPK3 (human) (UniProt O43293)
# Sequence of DAPK3 (human) (O43293 whole entry, looked up): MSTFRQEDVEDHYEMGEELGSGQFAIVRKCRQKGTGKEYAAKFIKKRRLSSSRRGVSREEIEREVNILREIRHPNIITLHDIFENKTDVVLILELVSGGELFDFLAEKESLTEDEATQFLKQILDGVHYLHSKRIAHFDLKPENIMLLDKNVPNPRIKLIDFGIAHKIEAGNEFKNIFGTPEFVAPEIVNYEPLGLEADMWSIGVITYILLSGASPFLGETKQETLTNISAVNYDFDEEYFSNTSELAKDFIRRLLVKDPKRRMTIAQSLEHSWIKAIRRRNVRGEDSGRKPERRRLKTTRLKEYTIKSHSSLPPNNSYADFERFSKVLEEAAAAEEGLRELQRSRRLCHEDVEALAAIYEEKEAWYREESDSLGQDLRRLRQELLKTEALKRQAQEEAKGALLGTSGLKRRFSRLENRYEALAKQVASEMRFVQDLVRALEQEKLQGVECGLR
# CHUK (human) = CHUK (human) (UniProt O15111)
# SRPK2 (human) = SRPK2 (human) (UniProt P78362)
# PRKACA (human) = PRKACA (human) (UniProt P17612)
# MAPKAPK3 (human) = MAPKAPK3 (human) (UniProt Q16644)
# EPHA3 (human) = EPHA3 (human) (UniProt P29320)
# MAPK3 (human) = MAPK3 (human) (UniProt P27361)
# Sequence of MAPK3 (human) (P27361 whole entry, looked up): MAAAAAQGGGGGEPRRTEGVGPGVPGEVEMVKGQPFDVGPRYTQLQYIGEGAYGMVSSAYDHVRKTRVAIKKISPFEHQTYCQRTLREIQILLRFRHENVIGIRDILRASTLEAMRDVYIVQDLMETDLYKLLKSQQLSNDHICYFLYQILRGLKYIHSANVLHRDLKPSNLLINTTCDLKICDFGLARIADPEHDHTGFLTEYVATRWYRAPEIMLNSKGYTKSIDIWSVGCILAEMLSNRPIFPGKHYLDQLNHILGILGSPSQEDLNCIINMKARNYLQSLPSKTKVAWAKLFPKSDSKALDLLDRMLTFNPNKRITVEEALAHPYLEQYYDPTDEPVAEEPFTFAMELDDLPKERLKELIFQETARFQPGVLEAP
# PRKCB2 (human) = PRKCB2 (human) (UniProt P05771)
# RAF1 (human) = RAF1 (human) (UniProt P04049)
# Sequence of RAF1 (human) (P04049 whole entry, looked up): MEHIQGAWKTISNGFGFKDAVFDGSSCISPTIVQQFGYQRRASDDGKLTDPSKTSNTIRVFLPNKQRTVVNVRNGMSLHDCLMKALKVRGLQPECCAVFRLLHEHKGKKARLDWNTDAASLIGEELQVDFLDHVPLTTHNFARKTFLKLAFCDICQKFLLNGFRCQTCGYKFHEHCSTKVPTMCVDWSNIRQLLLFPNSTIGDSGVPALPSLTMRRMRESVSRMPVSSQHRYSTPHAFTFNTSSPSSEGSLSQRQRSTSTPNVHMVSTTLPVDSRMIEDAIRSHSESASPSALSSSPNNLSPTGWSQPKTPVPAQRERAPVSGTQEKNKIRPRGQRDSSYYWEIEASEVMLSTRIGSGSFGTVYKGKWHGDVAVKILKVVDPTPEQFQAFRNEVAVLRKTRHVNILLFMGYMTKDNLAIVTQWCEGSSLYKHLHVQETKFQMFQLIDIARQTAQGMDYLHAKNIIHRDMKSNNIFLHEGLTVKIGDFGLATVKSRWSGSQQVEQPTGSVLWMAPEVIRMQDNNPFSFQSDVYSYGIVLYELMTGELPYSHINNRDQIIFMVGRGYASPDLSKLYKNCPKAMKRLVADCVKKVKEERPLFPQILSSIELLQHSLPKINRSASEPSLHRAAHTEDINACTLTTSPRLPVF
# STK24 (human) = STK24 (human) (UniProt Q9Y6E0)
# CDK1 CCNA2 (human) = CDK1 CCNA2 (human) (UniProt P06493+P20248)
# CLK3 (human) = CLK3 (human) (UniProt P49761)
# EPHA6 (human) = EPHA6 (human) (UniProt Q9UF33)
# Sequence of EPHA6 (human) (Q9UF33 whole entry, looked up): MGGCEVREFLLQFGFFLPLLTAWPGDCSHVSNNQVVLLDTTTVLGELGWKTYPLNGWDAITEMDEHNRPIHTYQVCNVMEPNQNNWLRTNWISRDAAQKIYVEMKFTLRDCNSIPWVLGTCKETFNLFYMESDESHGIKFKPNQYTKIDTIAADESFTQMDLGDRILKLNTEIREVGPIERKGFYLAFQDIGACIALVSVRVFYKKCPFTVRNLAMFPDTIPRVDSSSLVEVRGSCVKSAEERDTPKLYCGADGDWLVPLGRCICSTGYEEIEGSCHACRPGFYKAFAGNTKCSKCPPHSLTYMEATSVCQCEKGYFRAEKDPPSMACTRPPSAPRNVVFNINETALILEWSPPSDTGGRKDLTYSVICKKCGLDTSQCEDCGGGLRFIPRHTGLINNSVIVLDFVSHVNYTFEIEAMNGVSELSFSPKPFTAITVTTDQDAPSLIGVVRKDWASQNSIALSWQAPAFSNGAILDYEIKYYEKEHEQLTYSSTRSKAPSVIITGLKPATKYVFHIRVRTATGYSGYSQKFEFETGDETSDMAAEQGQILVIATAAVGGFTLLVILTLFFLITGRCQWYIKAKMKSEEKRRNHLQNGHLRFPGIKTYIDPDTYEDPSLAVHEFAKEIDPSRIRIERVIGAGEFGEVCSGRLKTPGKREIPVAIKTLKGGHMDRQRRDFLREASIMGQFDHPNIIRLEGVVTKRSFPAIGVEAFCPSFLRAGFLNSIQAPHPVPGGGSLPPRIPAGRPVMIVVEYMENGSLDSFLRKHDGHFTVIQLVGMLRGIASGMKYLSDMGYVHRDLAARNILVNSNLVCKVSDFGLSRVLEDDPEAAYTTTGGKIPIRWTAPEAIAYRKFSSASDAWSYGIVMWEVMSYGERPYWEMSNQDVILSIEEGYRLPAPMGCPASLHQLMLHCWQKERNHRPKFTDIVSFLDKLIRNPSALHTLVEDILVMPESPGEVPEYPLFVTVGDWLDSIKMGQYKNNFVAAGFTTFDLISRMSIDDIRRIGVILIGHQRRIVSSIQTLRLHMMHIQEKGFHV
# CSNK1D (human) = CSNK1D (human) (UniProt P48730)
# Sequence of CSNK1D (human) (P48730 whole entry, looked up): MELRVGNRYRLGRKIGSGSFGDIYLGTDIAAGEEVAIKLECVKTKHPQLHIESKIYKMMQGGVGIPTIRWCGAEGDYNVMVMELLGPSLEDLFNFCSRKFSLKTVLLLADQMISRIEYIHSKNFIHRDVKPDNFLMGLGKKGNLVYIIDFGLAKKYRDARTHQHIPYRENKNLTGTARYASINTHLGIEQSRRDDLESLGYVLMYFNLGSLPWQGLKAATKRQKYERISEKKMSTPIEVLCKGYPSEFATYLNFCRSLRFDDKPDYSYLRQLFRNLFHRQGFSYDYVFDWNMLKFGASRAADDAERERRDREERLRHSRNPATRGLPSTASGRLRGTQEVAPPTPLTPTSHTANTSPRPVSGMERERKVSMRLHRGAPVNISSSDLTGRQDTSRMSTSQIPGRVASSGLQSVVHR
# CDK6 CCND3 (human) = CDK6 CCND3 (human) (UniProt P30281+Q00534)
# CAMK1 (human) = CAMK1 (human) (UniProt Q14012)
# Sequence of CAMK1 (human) (Q14012 whole entry, looked up): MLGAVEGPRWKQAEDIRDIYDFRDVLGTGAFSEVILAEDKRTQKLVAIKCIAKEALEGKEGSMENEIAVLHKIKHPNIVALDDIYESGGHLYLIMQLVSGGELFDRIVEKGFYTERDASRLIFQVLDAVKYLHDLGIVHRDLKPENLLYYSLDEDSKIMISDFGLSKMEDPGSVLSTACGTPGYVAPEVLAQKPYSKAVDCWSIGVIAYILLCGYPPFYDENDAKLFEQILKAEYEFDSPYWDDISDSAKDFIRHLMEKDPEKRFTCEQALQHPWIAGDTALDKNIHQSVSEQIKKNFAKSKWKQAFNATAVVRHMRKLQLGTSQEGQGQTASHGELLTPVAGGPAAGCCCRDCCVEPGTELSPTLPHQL
# NUAK2 (human) = NUAK2 (human) (UniProt Q9H093)
# MAP3K8 (human) = MAP3K8 (human) (UniProt P41279)
# IKBKB (human) = IKBKB (human) (UniProt O14920)
# MAP3K7 TAB1 (human) = MAP3K7 TAB1 (human) (UniProt O43318+Q15750)
# TGFBR2 (human) = TGFBR2 (human) (UniProt P37173)
# MAPK11 (human) = MAPK11 (human) (UniProt Q15759)
# PTK2B (human) = PTK2B (human) (UniProt Q14289)
# MAP4K5 (human) = MAP4K5 (human) (UniProt Q9Y4K4)
# ULK3 (human) = ULK3 (human) (UniProt Q6PHR2)
# HIPK3 (human) = HIPK3 (human) (UniProt Q9H422)
# GSK3B (human) = GSK3B (human) (UniProt P49841)
# Sequence of GSK3B (human) (P49841 whole entry, looked up): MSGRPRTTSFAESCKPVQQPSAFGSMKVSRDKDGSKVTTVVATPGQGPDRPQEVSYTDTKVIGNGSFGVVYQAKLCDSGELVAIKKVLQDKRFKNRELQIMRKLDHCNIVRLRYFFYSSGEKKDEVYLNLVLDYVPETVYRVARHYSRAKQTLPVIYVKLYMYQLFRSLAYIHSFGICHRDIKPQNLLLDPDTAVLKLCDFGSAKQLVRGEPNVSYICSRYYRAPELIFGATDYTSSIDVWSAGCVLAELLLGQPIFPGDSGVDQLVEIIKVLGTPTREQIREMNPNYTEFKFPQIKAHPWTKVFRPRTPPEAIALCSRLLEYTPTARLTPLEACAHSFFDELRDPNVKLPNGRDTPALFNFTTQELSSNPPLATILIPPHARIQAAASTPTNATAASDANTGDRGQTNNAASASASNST
# STK38 (human) = STK38 (human) (UniProt Q15208)
# PDPK1 (human) = PDPK1 (human) (UniProt O15530)
# Sequence of PDPK1 (human) (O15530 whole entry, looked up): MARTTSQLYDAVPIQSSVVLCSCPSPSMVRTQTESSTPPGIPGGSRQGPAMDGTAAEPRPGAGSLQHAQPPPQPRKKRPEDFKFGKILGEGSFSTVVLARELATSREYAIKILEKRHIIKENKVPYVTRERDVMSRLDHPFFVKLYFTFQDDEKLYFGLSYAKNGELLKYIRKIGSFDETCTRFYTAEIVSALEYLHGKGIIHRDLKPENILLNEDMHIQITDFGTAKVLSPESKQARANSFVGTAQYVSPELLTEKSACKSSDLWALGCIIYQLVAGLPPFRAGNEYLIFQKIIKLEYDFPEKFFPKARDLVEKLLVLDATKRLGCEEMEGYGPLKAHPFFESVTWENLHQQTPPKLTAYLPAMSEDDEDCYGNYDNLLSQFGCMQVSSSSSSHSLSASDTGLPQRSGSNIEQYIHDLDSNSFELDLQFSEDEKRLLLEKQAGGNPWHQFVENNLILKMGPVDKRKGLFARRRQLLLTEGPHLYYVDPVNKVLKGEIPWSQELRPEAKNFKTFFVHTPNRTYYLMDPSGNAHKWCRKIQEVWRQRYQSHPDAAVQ
# MAPK10 (human) = MAPK10 (human) (UniProt P53779)
# PAK1 (human) = PAK1 (human) (UniProt Q13153)
# DMPK (human) = DMPK (human) (UniProt Q09013)
# Sequence of DMPK (human) (Q09013 whole entry, looked up): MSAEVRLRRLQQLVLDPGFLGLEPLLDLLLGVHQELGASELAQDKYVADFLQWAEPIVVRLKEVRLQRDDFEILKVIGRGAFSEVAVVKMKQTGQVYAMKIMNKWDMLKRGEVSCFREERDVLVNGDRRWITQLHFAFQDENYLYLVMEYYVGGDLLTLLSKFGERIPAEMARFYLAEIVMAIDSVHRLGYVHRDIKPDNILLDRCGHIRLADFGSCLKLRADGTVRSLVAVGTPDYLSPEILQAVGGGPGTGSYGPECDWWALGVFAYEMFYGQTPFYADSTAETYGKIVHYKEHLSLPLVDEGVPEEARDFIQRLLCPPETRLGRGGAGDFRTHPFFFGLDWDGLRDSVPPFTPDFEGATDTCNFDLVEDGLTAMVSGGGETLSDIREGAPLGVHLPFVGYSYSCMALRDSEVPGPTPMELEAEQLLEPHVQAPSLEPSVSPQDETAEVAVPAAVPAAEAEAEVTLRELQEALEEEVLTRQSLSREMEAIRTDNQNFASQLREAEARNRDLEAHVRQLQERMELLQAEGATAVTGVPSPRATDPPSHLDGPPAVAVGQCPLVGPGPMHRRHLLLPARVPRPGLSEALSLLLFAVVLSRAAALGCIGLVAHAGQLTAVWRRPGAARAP
# WNK3 (human) = WNK3 (human) (UniProt Q9BYP7)
# PTK6 (human) = PTK6 (human) (UniProt Q13882)
smiles,measurement,setting,value
O=C1c2ccccc2-c2nc3nnnn3nc21,residual activity,PRKCH (human),49.2%
same,residual activity,MAP4K4 (human),89%
same,residual activity,SYK (human),94.8%
same,residual activity,NEK9 (human),119%
same,residual activity,IKBKE (human),89.2%
same,residual activity,RPS6KA6 KD1 KD2 (human),62.3%
same,residual activity,TLK2 (human),100%
same,residual activity,DAPK3 (human),96.2%
same,residual activity,CHUK (human),72%
same,residual activity,SRPK2 (human),95.8%
same,residual activity,PRKACA (human),76.6%
same,residual activity,MAPKAPK3 (human),76%
same,residual activity,EPHA3 (human),81.6%
same,residual activity,MAPK3 (human),87%
same,residual activity,PRKCB2 (human),29.3%
same,residual activity,RAF1 (human),76.1%
same,residual activity,STK24 (human),101%
same,residual activity,CDK1 CCNA2 (human),48.9%
same,residual activity,CLK3 (human),81.2%
same,residual activity,EPHA6 (human),106%
same,residual activity,CSNK1D (human),86.8%
same,residual activity,CDK6 CCND3 (human),9.93%
same,residual activity,CAMK1 (human),68.7%
same,residual activity,NUAK2 (human),92.5%
same,residual activity,MAP3K8 (human),75.9%
same,residual activity,IKBKB (human),73.4%
same,residual activity,MAP3K7 TAB1 (human),89.9%
same,residual activity,TGFBR2 (human),93.4%
same,residual activity,MAPK11 (human),101%
same,residual activity,PTK2B (human),52.1%
same,residual activity,MAP4K5 (human),78.7%
same,residual activity,ULK3 (human),103%
same,residual activity,HIPK3 (human),101%
same,residual activity,GSK3B (human),83.5%
same,residual activity,STK38 (human),46.6%
same,residual activity,PDPK1 (human),79%
same,residual activity,MAPK10 (human),55%
same,residual activity,PAK1 (human),96.1%
same,residual activity,DMPK (human),84.8%
same,residual activity,WNK3 (human),116%
same,residual activity,PTK6 (human),111%
Cc1nc(-c2ccccc2)c(-c2ccncc2)o1,residual activity,PRKCH (human),88.1%
same,residual activity,MAP4K4 (human),85.1%
same,residual activity,SYK (human),99.1%
same,residual activity,NEK9 (human),97.2%
same,residual activity,IKBKE (human),102%
same,residual activity,RPS6KA6 KD1 KD2 (human),115%
same,residual activity,TLK2 (human),110%
same,residual activity,DAPK3 (human),101%
same,residual activity,CHUK (human),105%
same,residual activity,SRPK2 (human),92.3%
same,residual activity,PRKACA (human),98.9%
same,residual activity,MAPKAPK3 (human),94.7%
same,residual activity,EPHA3 (human),109%
same,residual activity,MAPK3 (human),103%
same,residual activity,PRKCB2 (human),88.4%
same,residual activity,RAF1 (human),92.6%
same,residual activity,STK24 (human),96.7%
same,residual activity,CDK1 CCNA2 (human),94.7%
same,residual activity,CLK3 (human),90.6%
same,residual activity,EPHA6 (human),95.9%
same,residual activity,CSNK1D (human),44%
same,residual activity,CDK6 CCND3 (human),109%
same,residual activity,CAMK1 (human),105%
same,residual activity,NUAK2 (human),128%
same,residual activity,MAP3K8 (human),89.9%
same,residual activity,IKBKB (human),105%
same,residual activity,MAP3K7 TAB1 (human),93.6%
same,residual activity,TGFBR2 (human),133%
same,residual activity,MAPK11 (human),101%
same,residual activity,PTK2B (human),100%
same,residual activity,MAP4K5 (human),96.2%
same,residual activity,ULK3 (human),94.3%
same,residual activity,HIPK3 (human),107%
same,residual activity,GSK3B (human),105%
same,residual activity,STK38 (human),97.3%
same,residual activity,PDPK1 (human),96.9%
same,residual activity,MAPK10 (human),101%
same,residual activity,PAK1 (human),98.7%
same,residual activity,DMPK (human),103%
same,residual activity,WNK3 (human),106%
same,residual activity,PTK6 (human),86%
COc1ccc(S(=O)(=O)N(CCO)c2ccccc2CN(C)C/C=C/c2ccc(Cl)cc2)cc1,residual activity,PRKCH (human),95.9%
same,residual activity,MAP4K4 (human),97.6%
same,residual activity,SYK (human),101%
same,residual activity,NEK9 (human),91.9%
same,residual activity,IKBKE (human),93.7%
same,residual activity,RPS6KA6 KD1 KD2 (human),102%
same,residual activity,TLK2 (human),96.6%
same,residual activity,DAPK3 (human),101%
same,residual activity,CHUK (human),92.7%
same,residual activity,SRPK2 (human),98.5%
same,residual activity,PRKACA (human),104%
same,residual activity,MAPKAPK3 (human),101%
same,residual activity,EPHA3 (human),102%
same,residual activity,MAPK3 (human),95.1%
same,residual activity,PRKCB2 (human),102%
same,residual activity,RAF1 (human),93.7%
same,residual activity,STK24 (human),101%
same,residual activity,CDK1 CCNA2 (human),96.5%
same,residual activity,CLK3 (human),100%
same,residual activity,EPHA6 (human),95.3%
same,residual activity,CSNK1D (human),102%
same,residual activity,CDK6 CCND3 (human),102%
same,residual activity,CAMK1 (human),105%
same,residual activity,NUAK2 (human),113%
same,residual activity,MAP3K8 (human),96.3%
same,residual activity,IKBKB (human),98.1%
same,residual activity,MAP3K7 TAB1 (human),94.7%
same,residual activity,TGFBR2 (human),97.2%
same,residual activity,MAPK11 (human),103%
same,residual activity,PTK2B (human),106%
same,residual activity,MAP4K5 (human),99.7%
same,residual activity,ULK3 (human),106%
same,residual activity,HIPK3 (human),104%
same,residual activity,GSK3B (human),102%
same,residual activity,STK38 (human),98.3%
same,residual activity,PDPK1 (human),93.7%
same,residual activity,MAPK10 (human),95.5%
same,residual activity,PAK1 (human),96%
same,residual activity,DMPK (human),105%
same,residual activity,WNK3 (human),99.4%
same,residual activity,PTK6 (human),89.3%
